Measurements reported in ChEMBL document CHEMBL4616697, “Discovery of Adamantane Carboxamides as Ebola Virus Cell Entry and Glycoprotein Inhibitors” (ACS Med Chem Lett, 2020).
Converted amounts (≈) assume the structure as drawn.

What was measured:
[1] = Inhibition of glycoprotein in VSV pseudotyped Ebolavirus infected in African green monkey Vero cells assessed as reduction in virus entry incubated for 24 hrs by luciferase reporter gene assay; assay type: cell-based
[2] = Kinetic aqueous solubility of compound in PBS at pH 6.4 to 7.5 measured after 2 hrs by spectrophotometry analysis; assay type: physicochemical; conditions: read-out: Kinetic_solubility
[3] = Metabolic stability in human liver microsomes assessed as parent compound remaining at 1 uM pretreated for 30 mins followed by NADPH addition and measured after 60 mins by LC-MS/MS analysis; assay type: ADME, Microsome; conditions: for remaining at 1 h, 1 µM: liver microsomes, read-out: Stability; for Stability: microsomes, 1 h, 1 µM
[4] = Metabolic stability in mouse liver microsomes assessed as parent compound remaining at 1 uM pretreated for 30 mins followed by NADPH addition and measured after 60 mins by LC-MS/MS analysis; assay type: ADME, Microsome; conditions: read-out: Stability
[5] = Metabolic stability in guinea pig liver microsomes assessed as parent compound remaining at 1 uM pretreated for 30 mins followed by NADPH addition and measured after 60 mins by LC-MS/MS analysis; assay type: ADME, Cavia porcellus, Microsome; conditions: read-out: Stability
[6] = Metabolic stability in rat liver microsomes assessed as parent compound remaining at 1 uM pretreated for 30 mins followed by NADPH addition and measured after 60 mins by LC-MS/MS analysis; assay type: ADME, Microsome; conditions: read-out: Stability
[7] = Metabolic stability in Cynomolgus monkey liver microsomes assessed as parent compound remaining at 1 uM pretreated for 30 mins followed by NADPH addition and measured after 60 mins by LC-MS/MS analysis; assay type: ADME, Macaca fascicularis, Microsome; conditions: read-out: Stability
[8] = Metabolic stability in dog liver microsomes assessed as parent compound remaining at 1 uM pretreated for 30 mins followed by NADPH addition and measured after 60 mins by LC-MS/MS analysis; assay type: ADME, Canis lupus familiaris, Microsome; conditions: read-out: Stability
[9] = Aqueous solubility of compound in PBS at pH 7.4 measured after 2 hrs by spectrophotometry analysis; assay type: physicochemical
Ebolavirus [10] = assay: Antiviral activity against wild type Ebolavirus infected in African green monkey Vero cells assessed as reduction in plaque forming units incubated for 10 days by crystal violet staining based assay; assay type: functional, organism-based; conditions: Orthoebolavirus, 240 h
Ebolavirus [11] = assay: Antiviral activity against wild type Ebolavirus infected in African green monkey Vero E6 cells assessed as inhibition of viral entry compound treated with primary viral infected cells for 60 mins and after 3 days post-infection measured following 10 days of compound incubation with fresh cells infected with primary culture supernatants by virus yield reduction assay; assay type: functional; conditions: Orthoebolavirus, Vero C1008
[12] = Cytotoxicity against African green monkey Vero E6 cells assessed as reduction in cell viability incubated for 10 days by neutral red dye based spectrophotometry analysis; design: species or system Vero C1008; conditions: chlorocebus sabaeus
[13] = Selectivity index, ratio of CC50 for African green monkey Vero E6 cells assessed as reduction in cell viability incubated for 10 days by neutral red dye based spectrophotometry analysis to EC90 for wild type Ebolavirus infected in African green monkey Vero E6 cells assessed as reduction in viral replication by virus yield reduction assay; assay type: toxicity, Vero C1008; conditions: read-out: Selectivity Index

SMILES | EC50 ([1]; Orthoebolavirus, Vero, 24 h) | solubility kinetic at 2 h [2] | further results
COc1ccc(C23CC4CC(CC(C(=O)NC5CCNCC5)(C4)C2)C3)cc1 | 380 nM | > 100 µM | 
CC12CC3CC(C(=O)N[C@@H]4CCNC[C@H]4F)(C1)CC(c1ccccc1)(C3)C2 (mixture of isomers) | 33 nM | > 100 µM | remaining at 1 h, 1 µM [3]: 60%
C[C@H]1C[C@H](NC(=O)C23CC4CC(C)(C2)CC(c2ccccc2)(C4)C3)CCN1 (mixture of isomers) | 46 nM | > 100 µM | remaining at 1 h, 1 µM [3]: 75%
O=C(NC1CCN(Cc2ccccc2)CC1)C12CC3CC(C1)CC(c1ccccc1)(C3)C2 | 380 nM | > 100 µM | 
O=C(NC1CCNCC1)C12CC3CC(C1)CC(c1ccc(Cl)cc1)(C3)C2 | 190 nM | > 100 µM | 
CCC12CC3CC(C(=O)NC4CCNCC4)(C1)CC(c1ccccc1)(C3)C2 (racemic) | 20 nM | > 100 µM | remaining at 1 h, 1 µM [3]: 69%
CC12CC3CC(C(=O)NC4CC5(CC(N)C5)C4)(C1)CC(c1ccccc1)(C3)C2 (racemic) | 40 nM | > 100 µM | remaining at 1 h, 1 µM [3]: 79%
CC12CC3CC(C(=O)N4CCNCC4)(C1)CC(c1ccccc1)(C3)C2 (racemic) | 130 nM | > 100 µM | remaining at 1 h, 1 µM [3]: 100%
CC12CC3CC(C(=O)NC4CNC4)(C1)CC(c1ccccc1)(C3)C2 (racemic) | 280 nM | > 100 µM | 
CC12CC3CC(C(=O)NCCN)(C1)CC(c1ccccc1)(C3)C2 (racemic) | 250 nM | > 100 µM | 
c1ccc(C23CC4CC(CC(CNC5CCNCC5)(C4)C2)C3)cc1 | 470 nM | > 100 µM | 
CCC12CC3CC(C(=O)N[C@H]4CC[C@H](N)CC4)(C1)CC(c1ccccc1)(C3)C2 (mixture of isomers) |  | > 100 µM | EC50 ([1]; vero): 10 nM; remaining at 1 h, 1 µM [3]: 71%
C[C@@]12C[C@H]3C[C@@](C(=O)NC4CCNCC4)(C1)C[C@](c1ccccc1)(C3)C2 |  |  | EC50 ([1]; vero): 240 nM
O=C(CC12CC3CC(C1)CC(c1ccccc1)(C3)C2)NC1CCNCC1 | 490 nM | > 100 µM | 
CC12CC3(C)CC(C(=O)NC4CCNCC4)(C1)CC(c1ccccc1)(C2)C3 | 320 nM | > 100 µM | 
CN1CCC(N(C)C(=O)C23CC4CC(C2)CC(c2ccccc2)(C4)C3)CC1 | 280 nM | > 100 µM | 
CC12CC3CC(C(=O)N[C@H]4CC[C@H](N)CC4)(C1)CC(c1ccccc1)(C3)C2 (stereo in doubt; 38) |  |  | EC50 ([1]; vero): 14 nM; Stability [3]: 100%; remaining at 1 h, 1 µM [4]: 74%; remaining at 1 h, 1 µM [5]: 100%; remaining at 1 h, 1 µM [6]: 63%; remaining at 1 h, 1 µM [7]: 89%; remaining at 1 h, 1 µM [8]: 96%; solubility at 2 h [9]: > 20 mg/mL; EC50 (Ebolavirus [10]): 240 nM; EC90 (Ebolavirus [11]): 750 nM; CC50 at 240 h [12]: 58000 nM; selectivity ratio at 240 h [13]: 77
CC12CC3CC(C(=O)N[C@H]4CC[C@H](N)CC4)(C1)CC(c1ccccc1)(C3)C2 (mixture of isomers) |  | > 100 µM | EC50 ([1]; vero): 31 nM; remaining at 1 h, 1 µM [3]: 92%
O=C(NC1CCNCC1)C12CC3CC1CC(c1ccccc1)(C3)C2 (stereo not given) | 330 nM | > 100 µM | 
CCC12CC3CC(C(=O)N[C@H]4CC[C@H](N)CC4)(C1)CC(c1ccccc1)(C3)C2 (stereo in doubt; 43) |  |  | EC50 ([1]; vero): 350 nM
O=C(NC1CCNCC1)C1C2CC3CC1CC(c1ccccc1)(C3)C2 (stereo not given) | 180 nM | > 100 µM | 

SMILES | EC50 ([1]; Orthoebolavirus, Vero, 24 h) | solubility kinetic at 2 h [2] | further results
C[C@]12C[C@@H]3C[C@](C(=O)NC4CCNCC4)(C1)C[C@@](c1ccccc1)(C3)C2 |  |  | EC50 ([1]; vero): 28 nM; Stability [3]: 81%; remaining at 1 h, 1 µM [4]: 86%; remaining at 1 h, 1 µM [7]: 83%; solubility at 2 h [9]: > 20 mg/mL; EC90 (Ebolavirus [11]): 2100 nM; CC50 at 240 h [12]: 71000 nM; selectivity ratio at 240 h [13]: 34
CC12CC3CC(C(=O)N[C@H]4CC[C@H](N)CC4)(C1)CC(c1ccccc1)(C3)C2 (stereo in doubt; 39) |  |  | EC50 ([1]; vero): 140 nM
O=C(N1CCNCC1)C12CC3CC(C1)CC(c1ccccc1)(C3)C2 | 260 nM | > 100 µM | 
CC12CC3CC(C(=O)N4CCC(N)CC4)(C1)CC(c1ccccc1)(C3)C2 (racemic) | 51 nM | > 100 µM | remaining at 1 h, 1 µM [3]: 81%
O=C(NC1CCNCC1)C12CC3CC(C1)CC(c1ccc([N+](=O)[O-])cc1)(C3)C2 | > 3000 nM | > 100 µM | 
CC12CC3CC(C(=O)N[C@H]4CC[C@H](CN)CC4)(C1)CC(c1ccccc1)(C3)C2 (stereo in doubt; 41) |  |  | EC50 ([1]; vero): 74 nM
O=C(NC1CCNCC1)NC12CC3CC(C1)CC(c1ccccc1)(C3)C2 | > 1000 nM | > 100 µM | 
CC12CC3CC(C(=O)N[C@H]4[C@@H]5CNC[C@@H]54)(C1)CC(c1ccccc1)(C3)C2 (mixture of isomers) | 120 nM | 61 µM (≈ 21.4 µg/mL) | 
O=C(N1CCc2ccccc2C1)C12CC3CC(C1)CC(c1ccccc1)(C3)C2 | 2300 nM | > 100 µM | 
CC12CC3CC(C(=O)NCC4CCNCC4)(C1)CC(c1ccccc1)(C3)C2 (racemic) | 420 nM | > 100 µM | 
CC12CC3CC(C(=O)N[C@H]4CC[C@@H](N)CC4)(C1)CC(c1ccccc1)(C3)C2 (mixture of isomers) | 110 nM | > 100 µM | remaining at 1 h, 1 µM [3]: 87%
O=C(NC1CCNCC1)C12CC3CC(C1)CC(c1ccc(F)cc1)(C3)C2 | 310 nM | > 100 µM | 
CC12CC3CC(C(=O)N[C@H]4CC[C@H](CN)CC4)(C1)CC(c1ccccc1)(C3)C2 (mixture of isomers) |  | > 100 µM | EC50 ([1]; vero): 30 nM; remaining at 1 h, 1 µM [3]: 75%
O=C(NC1CCNCC1)C12CC3CC(C1)CC(c1ccc(O)cc1)(C3)C2 | 1700 nM | > 100 µM | 
O=C(NC12CC3CC(C1)CC(c1ccccc1)(C3)C2)C1CCNCC1 | > 1000 nM | > 100 µM | 
NC1CCN(C(=O)C23CC4CC(C2)CC(c2ccccc2)(C4)C3)CC1 | 120 nM | > 100 µM | 
CC12CC3CC(C(=O)N[C@H]4CC[C@H](CN)CC4)(C1)CC(c1ccccc1)(C3)C2 (stereo in doubt; 40) |  |  | EC50 ([1]; vero): 10 nM; Stability [3]: 82%; remaining at 1 h, 1 µM [4]: 27%; remaining at 1 h, 1 µM [5]: 99%; remaining at 1 h, 1 µM [6]: 27%; remaining at 1 h, 1 µM [7]: 61%; remaining at 1 h, 1 µM [8]: 85%; solubility at 2 h [9]: > 20 mg/mL; EC50 (Ebolavirus [10]): 430 nM; EC90 (Ebolavirus [11]): 550 nM; CC50 at 240 h [12]: 22000 nM; selectivity ratio at 240 h [13]: 40
CN1CCC(NC(=O)C23CC4CC(C2)CC(c2ccccc2)(C4)C3)CC1 | 160 nM | > 100 µM | 
CC12CC3CC(C(=O)NC4CCNCC4)(C1)CC(c1ccccc1)(C3)C2 (racemic) |  | > 100 µM | EC50 ([1]; vero): 43 nM; remaining at 1 h, 1 µM [3]: 75%
O=C(NC1CCNCC1)C12CC3CC(C1)CC(c1ccccc1)(C3)C2 | 72 nM | > 100 µM | 
